# Key:
# Bacillus subtilis [1] = experiment: Antibacterial activity against Bacillus subtilis 168 by dilution technique; type: functional; details: subsp. subtilis str. 168
# Staphylococcus aureus [2] = experiment: Antibacterial activity against Staphylococcus aureus RN4220 by dilution technique; type: functional
# Acinetobacter baumannii = experiment: Antibacterial activity against Acinetobacter baumannii by dilution technique; type: functional
# Pseudomonas aeruginosa = experiment: Antibacterial activity against Pseudomonas aeruginosa by dilution technique; type: functional
# Escherichia coli = experiment: Antibacterial activity against Escherichia coli by dilution technique; type: functional
# HeLa = experiment: Cytotoxicity against human HeLa cells after 72 hrs by MTT assay; type: cell-based
# [3] = Selectivity index, ratio of IC50 for human HeLa cells to MIC for community associated methicillin-resistant Staphylococcus aureus USA300; type: functional
# [4] = Selectivity index, ratio of IC50 for human HEK293 cells to MIC for community associated methicillin-resistant Staphylococcus aureus USA300; type: functional
# Staphylococcus aureus [5] = experiment: Antibacterial activity against community associated methicillin-resistant Staphylococcus aureus USA300 by dilution technique; type: functional
# HEK293 = experiment: Cytotoxicity against human HEK293 cells after 72 hrs by MTT assay; type: cell-based; details: HEK293, 72 h
# Bacillus subtilis [6] = experiment: Antibacterial activity against Bacillus subtilis 168 by dilution technique in presence of kanamycin; type: functional, subsp. subtilis str. 168
# Staphylococcus aureus [7] = experiment: Antibacterial activity against community associated methicillin-resistant Staphylococcus aureus USA300 by dilution technique in presence of kanamycin; type: functional
# [8] = Selectivity index, ratio of IC50 for human HEK293 cells to MIC for Staphylococcus aureus RN4220; type: functional
# [9] = Selectivity index, ratio of IC50 for human HeLa cells to MIC for Staphylococcus aureus RN4220; type: functional
# Staphylococcus aureus [10] = experiment: Antibacterial activity against community associated methicillin-resistant Staphylococcus aureus USA300 by dilution technique in presence of chloramphenicol; type: functional
# Bacillus subtilis [11] = experiment: Antibacterial activity against Bacillus subtilis 168 by dilution technique in presence of chloramphenicol; type: functional, subsp. subtilis str. 168
SMILES,MIC (Bacillus subtilis [1]),MIC (Staphylococcus aureus [2]),MIC (Acinetobacter baumannii),MIC (Pseudomonas aeruginosa),MIC (Escherichia coli),IC50 (HeLa),Selectivity Index [3],Selectivity Index [4],MBC (Staphylococcus aureus [5]),MIC (Staphylococcus aureus [5]),IC50 (HEK293),MBC (Bacillus subtilis [1]),fractional inhibitory concentration index (FICI) (Bacillus subtilis [6]),MBC (Staphylococcus aureus [2]),fractional inhibitory concentration index (FICI) (Staphylococcus aureus [7]),Selectivity Index [8],Selectivity Index [9],fractional inhibitory concentration index (FICI) (Staphylococcus aureus [10]),fractional inhibitory concentration index (FICI) (Bacillus subtilis [11])
CC(C)(O)[C@H]1CC[C@@](C)([C@H]2CC[C@]3(C)[C@@H]2[C@H](O)C[C@@H]2[C@@]4(C)CCC(=O)C(C)(C)[C@@H]4CC[C@]23C)O1,128 µg/mL,128 µg/mL,> 128 µg/mL,> 128 µg/mL,> 128 µg/mL,,,,,,,,,,,,,,
CC(=O)O[C@@H]1C[C@@H]2[C@@]3(C)CC[C@H](O)C(C)(C)[C@@H]3CC[C@@]2(C)[C@]2(C)CC[C@H]([C@]3(C)CC[C@@H](C(C)(C)O)O3)[C@@H]12,> 128 µg/mL,> 128 µg/mL,64 µg/mL,64 µg/mL,64 µg/mL,,,,,,,,,,,,,,
CC(C)(O)[C@@H]1CC[C@@](C)([C@H]2CC[C@]3(C)[C@@H]2C(=O)C[C@@H]2[C@@]4(C)CC[C@H](O)C(C)(C)[C@@H]4CC[C@]23C)O1,> 128 µg/mL,64 µg/mL,> 128 µg/mL,> 128 µg/mL,64 µg/mL,,,,,,,,,,,,,,
CC(C)(O)[C@@H]1CC[C@@](C)([C@H]2CC[C@]3(C)[C@@H]2[C@H](OC(=O)c2ccccc2C(=O)O)C[C@@H]2[C@@]4(C)CC[C@H](O)C(C)(C)[C@@H]4CC[C@]23C)O1,16 µg/mL,4 µg/mL,> 128 µg/mL,128 µg/mL,> 128 µg/mL,54.4 µg/mL,1.7,5.5,128 µg/mL,32 µg/mL,175 µg/mL,64 µg/mL,<0.008,64 µg/mL,0.008,43.8,13.6,0.005,<0.004
CC(C)(O)[C@@H]1CC[C@@](C)([C@H]2CC[C@]3(C)[C@@H]2[C@H](OC(=O)/C=C/c2ccccc2)C[C@@H]2[C@@]4(C)CC[C@H](O)C(C)(C)[C@@H]4CC[C@]23C)O1,> 128 µg/mL,> 128 µg/mL,32 µg/mL,128 µg/mL,> 128 µg/mL,,,,,,,,,,,,,,
CC(=O)O[C@@H]1C[C@@H]2[C@@]3(C)CC[C@H](O)C(C)(C)[C@@H]3CC[C@@]2(C)[C@]2(C)CC[C@H]([C@]3(C)CC[C@H](C(C)(C)O)O3)[C@@H]12,> 128 µg/mL,64 µg/mL,128 µg/mL,128 µg/mL,64 µg/mL,,,,,,,,,,,,,,
CC(C)(O)[C@H]1CC[C@@](C)([C@H]2CC[C@]3(C)[C@@H]2C(=O)C[C@@H]2[C@@]4(C)CC[C@H](O)C(C)(C)[C@@H]4CC[C@]23C)O1,128 µg/mL,> 128 µg/mL,> 128 µg/mL,> 128 µg/mL,> 128 µg/mL,,,,,,,,,,,,,,
CC(C)(O)[C@H]1CC[C@@](C)([C@H]2CC[C@]3(C)[C@@H]2[C@H](OC(=O)c2ccccc2C(=O)O)C[C@@H]2[C@@]4(C)CC[C@H](O)C(C)(C)[C@@H]4CC[C@]23C)O1,16 µg/mL,64 µg/mL,> 128 µg/mL,> 128 µg/mL,> 128 µg/mL,,,,,64 µg/mL,,128 µg/mL,,,,,,,
CC(C)(O)[C@H]1CC[C@@](C)([C@H]2CC[C@]3(C)[C@@H]2[C@H](O)C[C@@H]2[C@@]4(C)CC[C@H](O)C(C)(C)[C@@H]4CC[C@]23C)O1,128 µg/mL,64 µg/mL,128 µg/mL,> 128 µg/mL,> 128 µg/mL,,,,,,,,,,,,,,
CC(C)(O)[C@@H]1CC[C@@](C)([C@H]2CC[C@]3(C)[C@@H]2C(=O)C[C@@H]2[C@@]4(C)CCC(=O)C(C)(C)[C@@H]4CC[C@]23C)O1,64 µg/mL,16 µg/mL,> 128 µg/mL,> 128 µg/mL,> 128 µg/mL,47 µg/mL,2.9,10.6,,16 µg/mL,170 µg/mL,,,,,10.6,2.9,,
CC(C)(O)[C@@H]1CC[C@@](C)([C@H]2CC[C@]3(C)[C@@H]2[C@H](O)C[C@@H]2[C@@]4(C)CCC(=O)C(C)(C)[C@@H]4CC[C@]23C)O1,32 µg/mL,> 128 µg/mL,> 128 µg/mL,> 128 µg/mL,> 128 µg/mL,,,,,,,,,,,,,,
CC(C)(O)[C@H]1CC[C@@](C)([C@H]2CC[C@]3(C)[C@@H]2C(=O)C[C@@H]2[C@@]4(C)CCC(=O)C(C)(C)[C@@H]4CC[C@]23C)O1,128 µg/mL,128 µg/mL,> 128 µg/mL,> 128 µg/mL,> 128 µg/mL,,,,,,,,,,,,,,
C=C(C)[C@@H]1CC[C@]2(C(=O)O)CC[C@]3(C)[C@H](CC[C@@H]4[C@@]5(C)CC[C@H](O)[C@@](C)(CO)[C@@H]5CC[C@]43C)[C@@H]12,8 µg/mL,16 µg/mL,> 128 µg/mL,> 128 µg/mL,> 128 µg/mL,,,,,16 µg/mL,,,,,,,,,
CC(C)=CCC[C@](C)(O)[C@H]1CC[C@]2(C)[C@@H]1[C@H](O)C[C@@H]1[C@@]3(C)CC[C@H](O)C(C)(C)[C@@H]3CC[C@]12C,32 µg/mL,16 µg/mL,64 µg/mL,> 128 µg/mL,64 µg/mL,,,,,32 µg/mL,,,0.25,,0.26,,,1.13,0.53
CC(C)(O)[C@@H]1CC[C@@](C)([C@H]2CC[C@]3(C)[C@@H]2[C@H](O)C[C@@H]2[C@@]4(C)CC[C@H](O)C(C)(C)[C@@H]4CC[C@]23C)O1,8 µg/mL,8 µg/mL,> 128 µg/mL,> 128 µg/mL,> 128 µg/mL,47.6 µg/mL,6,19.3,,8 µg/mL,154 µg/mL,,1.03,,0.14,19.3,6,1.5,1.25
O=C(N[C@H](CO)[C@H](O)c1ccc([N+](=O)[O-])cc1)C(Cl)Cl [CHLORAMPHENICOL],2 µg/mL,,,,,,,,,4 µg/mL,,,,,,,,,
O=c1[nH]cc(F)c(=O)[nH]1 [FLUOROURACIL],,,,,,0.8 µg/mL,,,,,,,,,,,,,
NC[C@H]1O[C@H](O[C@H]2[C@H](O)[C@@H](O[C@H]3O[C@H](CO)[C@@H](O)[C@H](N)[C@H]3O)[C@H](N)C[C@@H]2N)[C@H](O)[C@@H](O)[C@@H]1O [KANAMYCIN],0.25 µg/mL,1 µg/mL,1 µg/mL,8 µg/mL,1 µg/mL,,,,4 µg/mL,1 µg/mL,,1 µg/mL,,,,,,,

# — ChEMBL document CHEMBL2424524, “Synthesis and biological evaluation of novel ocotillol-type triterpenoid derivatives as antibacterial agents” (Eur J Med Chem, 2013)
